Activity calls are given as the source filed them. Cut-off read from the data, not from the text of the source, for most assays here: actives have a measured Kd and inactives only a lower limit.
Assays:
[1] = target: Cyclin-dependent kinase 5 (Homo sapiens, UniProt Q00535)
TGF-beta receptor type-2 = TGF-beta receptor type-2 (Homo sapiens, UniProt P37173)
[2] = target: T1, Glycogen phosphorylase, liver form (Homo sapiens, UniProt P06737); type: subcellular, K-562, COLO 205, SK-N-BE(2) and MV-4-11, Cell lysate; conditions: read-out: Kd apparent
T1 sequence (P06737 whole entry): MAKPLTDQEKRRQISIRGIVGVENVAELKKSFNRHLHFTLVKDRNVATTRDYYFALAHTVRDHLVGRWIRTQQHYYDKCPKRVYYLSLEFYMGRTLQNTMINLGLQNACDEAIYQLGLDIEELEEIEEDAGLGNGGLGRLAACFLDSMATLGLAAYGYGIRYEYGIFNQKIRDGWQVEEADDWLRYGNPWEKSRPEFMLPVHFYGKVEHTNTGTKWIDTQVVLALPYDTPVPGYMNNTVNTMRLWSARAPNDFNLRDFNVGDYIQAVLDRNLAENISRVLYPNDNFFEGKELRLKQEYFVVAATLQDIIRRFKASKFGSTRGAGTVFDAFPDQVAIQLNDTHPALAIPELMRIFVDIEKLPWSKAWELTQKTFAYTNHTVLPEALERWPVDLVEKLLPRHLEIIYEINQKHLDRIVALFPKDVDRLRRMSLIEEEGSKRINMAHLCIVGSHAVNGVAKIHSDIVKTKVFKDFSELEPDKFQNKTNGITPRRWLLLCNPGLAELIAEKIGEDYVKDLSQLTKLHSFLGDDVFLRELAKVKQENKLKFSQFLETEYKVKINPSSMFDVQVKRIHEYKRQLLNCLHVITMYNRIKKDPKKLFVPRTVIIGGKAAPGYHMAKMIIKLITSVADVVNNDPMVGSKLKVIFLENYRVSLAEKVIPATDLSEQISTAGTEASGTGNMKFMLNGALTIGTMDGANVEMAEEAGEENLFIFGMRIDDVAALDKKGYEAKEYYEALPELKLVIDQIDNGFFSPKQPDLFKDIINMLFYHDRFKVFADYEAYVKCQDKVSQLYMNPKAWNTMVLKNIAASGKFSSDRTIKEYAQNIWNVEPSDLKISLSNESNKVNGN

[3] = target: T2, Discoidin domain-containing receptor 2 (Homo sapiens, UniProt Q16832)
T2 sequence (Q16832 whole entry): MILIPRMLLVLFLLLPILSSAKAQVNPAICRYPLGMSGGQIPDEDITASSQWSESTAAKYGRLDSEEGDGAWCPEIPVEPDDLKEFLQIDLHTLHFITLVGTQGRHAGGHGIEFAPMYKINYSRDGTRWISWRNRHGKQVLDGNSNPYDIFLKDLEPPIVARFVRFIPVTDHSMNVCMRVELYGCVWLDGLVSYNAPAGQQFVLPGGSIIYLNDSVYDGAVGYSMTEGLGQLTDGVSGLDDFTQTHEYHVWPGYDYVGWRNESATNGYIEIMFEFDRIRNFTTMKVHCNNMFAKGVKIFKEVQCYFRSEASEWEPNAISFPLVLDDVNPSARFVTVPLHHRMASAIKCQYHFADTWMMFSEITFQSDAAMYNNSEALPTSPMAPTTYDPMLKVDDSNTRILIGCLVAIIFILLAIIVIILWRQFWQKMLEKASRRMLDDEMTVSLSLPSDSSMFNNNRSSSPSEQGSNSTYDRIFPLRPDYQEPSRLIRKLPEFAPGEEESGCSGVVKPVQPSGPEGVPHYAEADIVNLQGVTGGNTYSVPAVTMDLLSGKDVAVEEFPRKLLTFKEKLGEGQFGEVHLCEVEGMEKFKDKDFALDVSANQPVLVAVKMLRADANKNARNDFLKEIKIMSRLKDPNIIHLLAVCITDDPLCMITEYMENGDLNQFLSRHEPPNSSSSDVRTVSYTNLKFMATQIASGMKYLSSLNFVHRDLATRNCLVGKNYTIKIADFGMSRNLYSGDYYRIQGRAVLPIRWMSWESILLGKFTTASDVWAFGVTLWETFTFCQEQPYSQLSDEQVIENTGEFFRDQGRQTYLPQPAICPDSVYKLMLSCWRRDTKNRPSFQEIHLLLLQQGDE

[4] = target: T3, Receptor-type tyrosine-protein kinase FLT3 (Homo sapiens, UniProt P36888)
T3 sequence (P36888 whole entry): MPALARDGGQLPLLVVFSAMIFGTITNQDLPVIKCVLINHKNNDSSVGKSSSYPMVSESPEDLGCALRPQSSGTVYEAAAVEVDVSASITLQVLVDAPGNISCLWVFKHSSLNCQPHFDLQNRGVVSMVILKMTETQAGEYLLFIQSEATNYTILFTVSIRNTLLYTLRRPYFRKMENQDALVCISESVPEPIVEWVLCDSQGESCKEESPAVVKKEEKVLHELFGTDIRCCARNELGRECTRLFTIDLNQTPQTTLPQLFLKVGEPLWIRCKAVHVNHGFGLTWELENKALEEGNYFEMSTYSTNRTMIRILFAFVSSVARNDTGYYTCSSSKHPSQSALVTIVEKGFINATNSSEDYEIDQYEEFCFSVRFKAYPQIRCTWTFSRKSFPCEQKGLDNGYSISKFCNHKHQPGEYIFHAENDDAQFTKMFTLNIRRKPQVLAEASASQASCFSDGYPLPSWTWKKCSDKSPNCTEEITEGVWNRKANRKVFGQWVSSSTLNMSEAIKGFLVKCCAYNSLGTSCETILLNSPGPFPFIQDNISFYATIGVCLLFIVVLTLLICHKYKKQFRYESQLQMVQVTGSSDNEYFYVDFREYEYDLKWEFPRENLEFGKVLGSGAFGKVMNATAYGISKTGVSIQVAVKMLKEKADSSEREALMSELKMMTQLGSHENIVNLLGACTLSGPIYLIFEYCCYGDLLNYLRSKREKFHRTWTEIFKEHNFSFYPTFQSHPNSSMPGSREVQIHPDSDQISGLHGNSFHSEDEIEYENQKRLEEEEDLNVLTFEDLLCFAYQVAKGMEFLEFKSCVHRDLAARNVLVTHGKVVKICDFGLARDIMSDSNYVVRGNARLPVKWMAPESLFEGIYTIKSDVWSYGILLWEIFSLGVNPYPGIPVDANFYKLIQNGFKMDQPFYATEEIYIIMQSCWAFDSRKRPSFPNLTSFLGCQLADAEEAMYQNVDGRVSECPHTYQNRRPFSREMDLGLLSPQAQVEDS

[5] = target: Rho-associated protein kinase 1 (Homo sapiens, UniProt Q13464)
Sequence of Rho-associated protein kinase 1 (Q13464 whole entry): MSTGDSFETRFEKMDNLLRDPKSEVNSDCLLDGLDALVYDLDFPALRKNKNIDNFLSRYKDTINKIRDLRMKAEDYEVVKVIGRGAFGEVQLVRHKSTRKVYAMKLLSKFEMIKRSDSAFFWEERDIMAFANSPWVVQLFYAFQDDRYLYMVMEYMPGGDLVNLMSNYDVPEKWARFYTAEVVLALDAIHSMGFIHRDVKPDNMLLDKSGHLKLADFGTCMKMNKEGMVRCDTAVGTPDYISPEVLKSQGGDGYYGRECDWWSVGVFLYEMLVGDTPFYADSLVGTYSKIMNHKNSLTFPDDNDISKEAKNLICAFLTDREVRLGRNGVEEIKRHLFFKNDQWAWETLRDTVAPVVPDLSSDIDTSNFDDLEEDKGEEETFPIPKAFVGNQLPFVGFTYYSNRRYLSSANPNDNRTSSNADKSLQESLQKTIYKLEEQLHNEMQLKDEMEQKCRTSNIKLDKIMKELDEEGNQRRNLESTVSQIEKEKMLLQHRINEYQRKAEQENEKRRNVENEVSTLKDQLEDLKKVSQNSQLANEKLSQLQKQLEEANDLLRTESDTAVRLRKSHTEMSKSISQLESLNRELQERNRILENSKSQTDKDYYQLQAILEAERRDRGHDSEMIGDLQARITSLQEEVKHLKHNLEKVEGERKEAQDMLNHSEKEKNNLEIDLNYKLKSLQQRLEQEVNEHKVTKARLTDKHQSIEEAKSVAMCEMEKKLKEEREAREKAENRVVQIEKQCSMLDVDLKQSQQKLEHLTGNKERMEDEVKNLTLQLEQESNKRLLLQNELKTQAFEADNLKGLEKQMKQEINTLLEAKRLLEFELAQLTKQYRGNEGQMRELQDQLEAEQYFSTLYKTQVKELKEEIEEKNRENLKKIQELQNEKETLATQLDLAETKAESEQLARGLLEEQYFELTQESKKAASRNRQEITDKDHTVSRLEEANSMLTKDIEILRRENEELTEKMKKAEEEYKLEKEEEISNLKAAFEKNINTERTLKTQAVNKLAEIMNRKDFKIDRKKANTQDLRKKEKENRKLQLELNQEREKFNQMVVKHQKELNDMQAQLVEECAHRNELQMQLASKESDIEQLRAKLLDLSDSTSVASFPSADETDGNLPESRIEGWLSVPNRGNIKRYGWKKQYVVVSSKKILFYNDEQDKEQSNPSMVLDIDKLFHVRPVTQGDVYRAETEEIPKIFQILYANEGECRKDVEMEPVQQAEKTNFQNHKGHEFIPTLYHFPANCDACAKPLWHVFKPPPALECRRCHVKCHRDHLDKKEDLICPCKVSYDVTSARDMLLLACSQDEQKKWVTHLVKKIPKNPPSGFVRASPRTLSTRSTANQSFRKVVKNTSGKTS
Note: in the data inactive means no Kd found up to 30 µM.

Sequence of Cyclin-dependent kinase 5 (Q00535 whole entry): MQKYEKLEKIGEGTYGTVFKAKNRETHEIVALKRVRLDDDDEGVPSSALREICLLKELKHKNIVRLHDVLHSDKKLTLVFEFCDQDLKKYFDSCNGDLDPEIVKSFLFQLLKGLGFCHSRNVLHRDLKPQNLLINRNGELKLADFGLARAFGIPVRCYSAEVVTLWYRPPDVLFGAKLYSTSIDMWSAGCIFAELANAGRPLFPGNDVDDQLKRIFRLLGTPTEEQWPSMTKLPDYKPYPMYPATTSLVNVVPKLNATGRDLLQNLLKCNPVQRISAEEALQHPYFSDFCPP
Sequence of TGF-beta receptor type-2 (P37173 whole entry): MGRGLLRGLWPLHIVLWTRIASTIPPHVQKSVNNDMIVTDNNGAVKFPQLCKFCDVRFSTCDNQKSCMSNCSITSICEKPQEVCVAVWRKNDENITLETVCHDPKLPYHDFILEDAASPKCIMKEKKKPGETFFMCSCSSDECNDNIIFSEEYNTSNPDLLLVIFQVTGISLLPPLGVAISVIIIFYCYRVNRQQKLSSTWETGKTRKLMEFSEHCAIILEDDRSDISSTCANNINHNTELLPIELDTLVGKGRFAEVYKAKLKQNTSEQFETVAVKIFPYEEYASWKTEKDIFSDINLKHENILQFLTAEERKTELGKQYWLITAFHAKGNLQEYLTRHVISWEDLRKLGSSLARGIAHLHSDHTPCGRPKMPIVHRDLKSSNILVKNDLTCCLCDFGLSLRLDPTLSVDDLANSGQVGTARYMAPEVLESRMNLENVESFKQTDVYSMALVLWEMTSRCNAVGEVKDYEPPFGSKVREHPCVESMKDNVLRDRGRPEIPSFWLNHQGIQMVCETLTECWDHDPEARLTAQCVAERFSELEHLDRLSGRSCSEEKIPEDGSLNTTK

SMILES	Kd [1]	Kd (TGF-beta receptor type-2)	Kd [2]	Kd [3]	Kd [4]	Kd [5]
O=C(Nc1nc2cccc(-c3ccc(CN4CCS(=O)(=O)CC4)cc3)n2n1)C1CC1 [FILGOTINIB]	> 30 µM (inactive)	> 30 µM (inactive)	> 30 µM (inactive)	> 30 µM (inactive)	> 30 µM (inactive)	> 30 µM (inactive)
Cc1cccc(-c2nn3c(c2-c2ccnc4ccc(C(N)=O)cc24)CCC3)n1 [GALUNISERTIB]	> 30 µM (inactive)	> 30 µM (inactive)	> 30 µM (inactive)	> 30 µM (inactive)	> 30 µM (inactive)	> 30 µM (inactive)
COc1ccc(S(=O)(=O)N(C(C)=O)c2ccccc2/C=C/c2cc[n+]([O-])cc2)cc1 [HMN-214]	> 30 µM (inactive)	> 30 µM (inactive)	> 30 µM (inactive)	> 30 µM (inactive)	> 30 µM (inactive)	> 30 µM (inactive)
NC1(c2ccc(-c3nc4ccn5c(=O)[nH]nc5c4cc3-c3ccccc3)cc2)CCC1 [MK-2206]	> 30 µM (inactive)	> 30 µM (inactive)	> 30 µM (inactive)	> 30 µM (inactive)	> 30 µM (inactive)	> 30 µM (inactive)
CN(C[C@@H]1COCCO1)S(=O)(=O)Nc1ccc2ccc3ncc(-c4cnn(C)c4)cc3c(=O)c2c1 [MK-2461]	> 30 µM (inactive)	> 30 µM (inactive)	> 30 µM (inactive)	> 30 µM (inactive)	> 30 µM (inactive)	> 30 µM (inactive)
Cn1cc(-c2cnc3ccc4ccc(CS(=O)(=O)NCc5ccccn5)cc4c(=O)c3c2)cn1 [MK-8033]	> 30 µM (inactive)	> 30 µM (inactive)	> 30 µM (inactive)	> 30 µM (inactive)	> 30 µM (inactive)	> 30 µM (inactive)
FC(F)(F)c1ccc(/C=C/c2nc(COc3ccc(CCCCn4ccnn4)cc3)co2)cc1 [MUBRITINIB]	> 30 µM (inactive)	> 30 µM (inactive)	> 30 µM (inactive)	> 30 µM (inactive)	> 30 µM (inactive)	> 30 µM (inactive)
COc1ncc(-c2ccc3nccc(-c4ccnnc4)c3c2)cc1NS(=O)(=O)c1ccc(F)cc1F [OMIPALISIB]	> 30 µM (inactive)	> 30 µM (inactive)	> 30 µM (inactive)	> 30 µM (inactive)	> 30 µM (inactive)	> 30 µM (inactive)
CCOc1cc2ncc(C#N)c(Nc3ccc(F)c(Cl)c3)c2cc1NC(=O)/C=C/CN(C)C [PELITINIB]	> 30 µM (inactive)	> 30 µM (inactive)	> 30 µM (inactive)	> 30 µM (inactive)	> 30 µM (inactive)	> 30 µM (inactive)
Cc1nc(Nc2n[nH]c3c2CN(C(=O)N[C@H](CN(C)C)c2ccccc2)C3(C)C)c2sccc2n1 [PF-03758309]	> 30 µM (inactive)	> 30 µM (inactive)	> 30 µM (inactive)	> 30 µM (inactive)	1.44 µM (active)	> 30 µM (inactive)
Cc1cnc(NC(=O)Nc2cc(Br)c(C)cc2OC[C@@H]2CNCCO2)cn1 [RABUSERTIB]	> 30 µM (inactive)	> 30 µM (inactive)	> 30 µM (inactive)	> 30 µM (inactive)	> 30 µM (inactive)	> 30 µM (inactive)
CO[C@H]1C[C@@H]2CC[C@@H](C)[C@@](O)(O2)C(=O)C(=O)N2CCCC[C@H]2C(=O)O[C@H]([C@H](C)C[C@@H]2CC[C@@H](OP(C)(C)=O)[C@H](OC)C2)CC(=O)[C@H](C)/C=C(\C)[C@@H](O)[C@@H](OC)C(=O)[C@H](C)C[C@H](C)/C=C/C=C/C=C/1C [RIDAFOROLIMUS]	> 30 µM (inactive)	> 30 µM (inactive)	> 30 µM (inactive)	> 30 µM (inactive)	> 30 µM (inactive)	> 30 µM (inactive)
Cn1cc(-c2cnn3c(N)c(Br)c([C@@H]4CCCNC4)nc23)cn1 [SCH-900776]	> 30 µM (inactive)	4.72 µM (active)	> 30 µM (inactive)	> 30 µM (inactive)	> 30 µM (inactive)	> 30 µM (inactive)
CO[C@H]1C[C@@H]2CC[C@@H](C)[C@@](O)(O2)C(=O)C(=O)N2CCCC[C@H]2C(=O)O[C@H]([C@H](C)C[C@@H]2CC[C@@H](O)[C@H](OC)C2)CC(=O)[C@H](C)/C=C(\C)[C@@H](O)[C@@H](OC)C(=O)[C@H](C)C[C@H](C)/C=C/C=C/C=C/1C [SIROLIMUS]	> 30 µM (inactive)	> 30 µM (inactive)	> 30 µM (inactive)	> 30 µM (inactive)	> 30 µM (inactive)	> 30 µM (inactive)
CO[C@H]1C[C@@H]2CC[C@@H](C)[C@@](O)(O2)C(=O)C(=O)N2CCCC[C@H]2C(=O)O[C@H]([C@H](C)C[C@@H]2CC[C@@H](OC(=O)C(C)(CO)CO)[C@H](OC)C2)CC(=O)[C@H](C)/C=C(\C)[C@@H](O)[C@@H](OC)C(=O)[C@H](C)C[C@H](C)/C=C/C=C/C=C/1C [TEMSIROLIMUS]	> 30 µM (inactive)	> 30 µM (inactive)	> 30 µM (inactive)	> 30 µM (inactive)	> 30 µM (inactive)	> 30 µM (inactive)
COc1cc2c(Nc3ccc(Cl)c(Cl)c3F)ncnc2cc1OC[C@@H]1C[C@@H]2CN(C)C[C@@H]2C1 [TESEVATINIB]	> 30 µM (inactive)	> 30 µM (inactive)	> 30 µM (inactive)	1.52 µM (active)	> 30 µM (inactive)	> 30 µM (inactive)
O=C1NC(=O)[C@@H](c2cn3c4c(cccc24)CCC3)[C@@H]1c1c[nH]c2ccccc12 [TIVANTINIB]	> 30 µM (inactive)	> 30 µM (inactive)	> 30 µM (inactive)	> 30 µM (inactive)	> 30 µM (inactive)	> 30 µM (inactive)

— ChEMBL document CHEMBL3991601, “The target landscape of clinical kinase drugs” (Science, 2017)
